# Active and inactive are the calls of the source. No cut-off for these calls is given here.
# How the values were obtained:
# [1] = Cytotoxicity against HEK293 cells incubated for 72 hrs by MTT assay; type: toxicity, cell-based; details: human
# U-87 MG = test: Antiproliferative activity against human U-87 MG cells incubated for 72 hrs by MTT assay
# A549 = test: cells; details: Homo sapiens, A549, 72 h
# Description: Antiproliferative activity against human A549 cells incubated for 72 hrs by MTT assay
# K562 [2] = test: Antiproliferative activity against human K562 cells incubated for 72 hrs by PrestoBlue assay; details: K562, 72 h
# HT-1080 = test: Antiproliferative activity against human HT-1080 cells incubated for 72 hrs by MTT assay; details: HT-1080, 72 h
# Neutrophil collagenase = Neutrophil collagenase (Homo sapiens, UniProt P22894); test: Inhibition of MMP-8 (unknown origin)
# Sequence of Neutrophil collagenase (P22894 whole entry): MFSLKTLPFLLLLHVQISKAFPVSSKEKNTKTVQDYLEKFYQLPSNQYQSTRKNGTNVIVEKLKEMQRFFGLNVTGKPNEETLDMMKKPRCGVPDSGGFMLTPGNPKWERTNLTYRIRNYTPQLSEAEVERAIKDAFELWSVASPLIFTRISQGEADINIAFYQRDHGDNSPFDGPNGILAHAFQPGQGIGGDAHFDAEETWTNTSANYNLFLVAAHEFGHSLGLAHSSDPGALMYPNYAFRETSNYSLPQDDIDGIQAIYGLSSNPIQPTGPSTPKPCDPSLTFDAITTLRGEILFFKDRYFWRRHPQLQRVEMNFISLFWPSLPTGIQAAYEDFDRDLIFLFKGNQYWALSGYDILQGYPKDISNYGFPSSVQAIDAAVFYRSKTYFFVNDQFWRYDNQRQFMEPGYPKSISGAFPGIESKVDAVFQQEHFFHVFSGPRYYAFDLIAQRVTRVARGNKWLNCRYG
# [3] = biological target: 72 kDa type IV collagenase (Homo sapiens, UniProt P08253); test: Inhibition of MMP-2 (unknown origin) using chromogenic substrate incubated for 1 hr by microplate photometer analysis
# Sequence of 72 kDa type IV collagenase (P08253 whole entry): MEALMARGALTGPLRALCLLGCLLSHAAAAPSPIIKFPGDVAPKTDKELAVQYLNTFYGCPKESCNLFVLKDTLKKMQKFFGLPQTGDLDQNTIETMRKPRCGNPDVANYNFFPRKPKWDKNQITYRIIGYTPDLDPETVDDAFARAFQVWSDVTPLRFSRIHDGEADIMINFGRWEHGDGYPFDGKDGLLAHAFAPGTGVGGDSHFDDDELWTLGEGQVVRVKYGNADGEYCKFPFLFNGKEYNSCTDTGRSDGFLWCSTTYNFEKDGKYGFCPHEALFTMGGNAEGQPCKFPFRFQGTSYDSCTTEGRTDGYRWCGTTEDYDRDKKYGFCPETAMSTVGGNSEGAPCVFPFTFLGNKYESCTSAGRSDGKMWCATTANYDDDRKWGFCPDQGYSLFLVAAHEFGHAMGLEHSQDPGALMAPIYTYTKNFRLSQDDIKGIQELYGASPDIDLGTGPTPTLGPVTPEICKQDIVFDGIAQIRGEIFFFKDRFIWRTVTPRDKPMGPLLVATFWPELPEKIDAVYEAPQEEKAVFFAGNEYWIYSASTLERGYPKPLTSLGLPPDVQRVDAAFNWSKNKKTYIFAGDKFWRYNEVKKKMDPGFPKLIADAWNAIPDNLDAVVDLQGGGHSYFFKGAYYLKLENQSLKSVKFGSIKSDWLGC
# [4] = biological target: Matrix metalloproteinase-9 (Homo sapiens, UniProt P14780); test: Inhibition of MMP-9 (unknown origin) using chromogenic substrate incubated for 1 hr by microplate photometer analysis
# Sequence of Matrix metalloproteinase-9 (P14780 whole entry): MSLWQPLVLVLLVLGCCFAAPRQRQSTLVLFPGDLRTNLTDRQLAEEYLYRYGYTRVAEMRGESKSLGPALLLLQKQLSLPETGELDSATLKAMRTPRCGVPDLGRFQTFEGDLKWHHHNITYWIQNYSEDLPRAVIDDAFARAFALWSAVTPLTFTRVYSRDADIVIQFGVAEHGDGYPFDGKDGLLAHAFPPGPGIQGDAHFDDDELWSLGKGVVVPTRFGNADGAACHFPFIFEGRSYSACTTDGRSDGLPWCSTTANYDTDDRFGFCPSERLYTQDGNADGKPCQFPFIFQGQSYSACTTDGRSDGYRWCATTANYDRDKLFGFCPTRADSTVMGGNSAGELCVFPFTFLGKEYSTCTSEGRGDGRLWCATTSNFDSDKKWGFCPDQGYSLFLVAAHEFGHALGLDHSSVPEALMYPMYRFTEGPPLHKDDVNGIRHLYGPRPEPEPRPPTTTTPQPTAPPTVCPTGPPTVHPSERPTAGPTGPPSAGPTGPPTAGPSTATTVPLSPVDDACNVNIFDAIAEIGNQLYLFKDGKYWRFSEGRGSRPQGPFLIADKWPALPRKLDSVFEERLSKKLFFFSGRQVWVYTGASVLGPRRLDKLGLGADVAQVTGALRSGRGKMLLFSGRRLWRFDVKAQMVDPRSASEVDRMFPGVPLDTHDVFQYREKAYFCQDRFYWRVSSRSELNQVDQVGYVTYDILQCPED
# K562 [5] = test: Antiproliferative activity against human K562 cells; type: functional, cell-based
# K562 [6] = test: Induction of cell cycle arrest in human K562 cells assessed as cell population at G1 phase at 4.919 uM incubated for 72 hrs by propidium iodide staining based flow cytometry analysis (reference value: 44.4 +/- 1.5%); type: functional
# ACHN [7] = test: Antiangiogenic activity in human ACHN cells assessed as reduction in total segment length at 26.764 uM incubated for 72 hrs by microscopic analysis; type: functional, cell-based
# K562 [8] = test: Induction of cell cycle arrest in human K562 cells assessed as cell population at sub-G1 phase at 4.919 uM incubated for 72 hrs by propidium iodide staining based flow cytometry analysis; type: functional
# [9] = Downregulation of MMP-2 expression in human K562 cells at 4.919 uM incubated for 48 hrs by flow cytometry analysis; type: functional
# ACHN [10] = test: Antiangiogenic activity in human ACHN cells assessed as reduction in branch length at 26.764 uM incubated for 72 hrs by microscopic analysis; type: functional, cell-based
# K562 [11] = test: Induction of cell cycle arrest in human K562 cells assessed as cell population at G2/M phase at 4.919 uM incubated for 72 hrs by propidium iodide staining based flow cytometry analysis (reference value: 22.9 +/- 1.9%); type: functional
# ACHN [12] = test: Antiproliferative activity against human ACHN cells incubated for 72 hrs by MTT assay
# [13] = biological target: Macrophage metalloelastase (Homo sapiens, UniProt P39900); test: Inhibition of MMP-12 (unknown origin)
# Sequence of Macrophage metalloelastase (P39900 whole entry): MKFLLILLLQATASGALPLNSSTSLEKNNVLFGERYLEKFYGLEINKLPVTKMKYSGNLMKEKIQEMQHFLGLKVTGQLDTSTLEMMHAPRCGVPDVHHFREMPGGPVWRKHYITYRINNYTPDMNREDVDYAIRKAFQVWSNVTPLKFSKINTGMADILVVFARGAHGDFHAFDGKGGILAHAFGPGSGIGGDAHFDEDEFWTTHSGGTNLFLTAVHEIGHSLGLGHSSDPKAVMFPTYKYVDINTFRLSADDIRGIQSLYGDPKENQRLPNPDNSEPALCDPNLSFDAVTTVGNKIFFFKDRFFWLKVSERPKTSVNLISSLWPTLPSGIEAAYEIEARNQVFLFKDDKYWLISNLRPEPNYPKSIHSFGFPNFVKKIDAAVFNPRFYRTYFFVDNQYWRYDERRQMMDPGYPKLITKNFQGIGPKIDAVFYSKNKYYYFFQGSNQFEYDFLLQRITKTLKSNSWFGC
# K562 [14] = test: Induction of apoptosis in human K562 cells assessed as total apoptotic cells at 4.919 uM incubated for 72 hrs by Annexin-V/PI staining based flow cytometry analysis (reference value: 2.6 +/- 1.1%); type: functional
# ACHN [15] = test: Antiangiogenic activity in human ACHN cells assessed as reduction in total tube length at 26.764 uM incubated for 72 hrs by microscopic analysis; type: functional, cell-based
# K562 [16] = test: Induction of cell cycle arrest in human K562 cells assessed as cell population at S phase at 4.919 uM incubated for 72 hrs by propidium iodide staining based flow cytometry analysis (reference value: 32.7 +/- 3.1%); type: functional
# ACHN [17] = test: Antiangiogenic activity in human ACHN cells assessed as reduction in mesh length at 26.764 uM incubated for 72 hrs by microscopic analysis; type: functional, cell-based
# ACHN [18] = test: Antiangiogenic activity in human ACHN cells assessed as reduction in branch length at 17.157 uM incubated for 72 hrs by microscopic analysis; type: functional, cell-based
# K562 [19] = test: Induction of apoptosis in human K562 cells assessed as increase in necrotic cells at 1.992 uM after 72 hrs by AO/EB staining based fluorescence microscopic analysis; type: functional, cell-based
# K562 [20] = test: Induction of cell cycle arrest in human K562 cells assessed as cell population at G2/M phase at 1.992 uM incubated for 72 hrs by propidium iodide staining based flow cytometry analysis (reference value: 22.9 +/- 1.9%); type: functional
# K562 [21] = test: Induction of apoptosis in human K562 cells assessed as morphological changes at 1.992 uM after 72 hrs by AO/EB staining based fluorescence microscopic analysis; type: functional, cell-based
# ACHN [22] = test: Antiangiogenic activity in human ACHN cells assessed as reduction in mesh length at 17.157 uM incubated for 72 hrs by microscopic analysis; type: functional, cell-based
# ACHN [23] = test: Antiangiogenic activity in human ACHN cells assessed as reduction in total segment length at 17.157 uM incubated for 72 hrs by microscopic analysis; type: functional, cell-based
# K562 [24] = test: Induction of apoptosis in human K562 cells assessed as increase in late apoptotic cells at 1.992 uM after 48 hrs by AO/EB staining based fluorescence microscopic analysis; type: functional, cell-based
# K562 [25] = test: Induction of cell cycle arrest in human K562 cells assessed as cell population at G1 phase at 1.992 uM incubated for 72 hrs by propidium iodide staining based flow cytometry analysis (reference value: 44.4 +/- 1.5%); type: functional
# K562 [26] = test: Induction of apoptosis in human K562 cells at 1.992 uM by AO/EB staining based fluorescence microscopic analysis; type: functional, cell-based; details: time 24-72 hrs, TDE = time-dependent effect
# K562 [27] = test: Induction of apoptosis in human K562 cells assessed as appearance of apoptotic cells at 1.992 uM after 24 to 72 hrs by AO/EB staining based fluorescence microscopic analysis; type: functional, cell-based; details: time 24-72 hrs
# ACHN [28] = test: Antiangiogenic activity in human ACHN cells assessed as reduction in total tube length at 17.157 uM incubated for 72 hrs by microscopic analysis; type: functional, cell-based
# K562 [29] = test: Induction of apoptosis in human K562 cells assessed as increase in late apoptotic dead cells at 1.992 uM after 72 hrs by AO/EB staining based fluorescence microscopic analysis; type: functional, cell-based
# K562 [30] = test: Induction of apoptosis in human K562 cells assessed as total apoptotic cells at 1.992 uM incubated for 72 hrs by Annexin-V/PI staining based flow cytometry analysis (reference value: 2.6 +/- 1.1%); type: functional
# [31] = Downregulation of MMP-2 expression in human K562 cells at 1.992 uM incubated for 48 hrs by flow cytometry analysis; type: functional
# K562 [32] = test: Induction of apoptosis in human K562 cells assessed as appearance of nucleus with fragmented DNA at 1.992 uM after 72 hrs by AO/EB staining based fluorescence microscopic analysis; type: functional, cell-based
# K562 [33] = test: Induction of cell cycle arrest in human K562 cells assessed as cell population at sub-G1 phase at 1.992 uM incubated for 72 hrs by propidium iodide staining based flow cytometry analysis; type: functional
# K562 [34] = test: Induction of apoptosis in human K562 cells assessed as increase in early apoptotic cells at 1.992 uM after 24 hrs by AO/EB staining based fluorescence microscopic analysis; type: functional, cell-based
# K562 [35] = test: Induction of cell cycle arrest in human K562 cells assessed as cell population at S phase at 1.992 uM incubated for 72 hrs by propidium iodide staining based flow cytometry analysis (reference value: 32.7 +/- 3.1%); type: functional
smiles,measurement,setting,value
Cc1ccc(S(=O)(=O)N[C@H](CCC(N)=O)C(=O)O)cc1,IC50 at 72 h,[1],279 µM
same,IC50,U-87 MG,19.9 µM
same,IC50,A549,8.98 µM
same,IC50,K562 [2],2.27 µM
same,IC50,HT-1080,18.3 µM
Cc1ccc(S(=O)(=O)N[C@H](CCC(=O)NCC(C)C)C(=O)O)cc1,IC50 at 72 h,[1],645 µM
same,IC50,U-87 MG,26.3 µM
same,IC50,A549,32.2 µM
same,IC50,K562 [2],2.35 µM
same,IC50,Neutrophil collagenase,> 2000 nM
same,IC50,HT-1080,39.2 µM
CC(C)NC(=O)CC[C@@H](NS(=O)(=O)c1ccc([N+](=O)[O-])cc1)C(=O)O,IC50 at 72 h,[1],271 µM
same,IC50,U-87 MG,37.5 µM
same,IC50,A549,10.6 µM
same,IC50,K562 [2],11 µM
same,IC50,HT-1080,43.5 µM
CNC(=O)CC[C@@H](NS(=O)(=O)c1ccc([N+](=O)[O-])cc1)C(=O)O,IC50 at 72 h,[1],417 µM
same,IC50,U-87 MG,20.5 µM
same,IC50,A549,20.8 µM
same,IC50,K562 [2],5.69 µM
same,IC50,HT-1080,24.4 µM
CCNC(=O)CC[C@@H](NS(=O)(=O)c1ccc([N+](=O)[O-])cc1)C(=O)O,IC50 at 72 h,[1],145 µM
same,IC50,U-87 MG,16.2 µM
same,IC50,A549,12.2 µM
same,IC50,K562 [2],7.76 µM
same,IC50,HT-1080,32.9 µM
CCCCCNC(=O)CC[C@@H](NS(=O)(=O)c1ccc(C)cc1)C(=O)O,IC50 at 72 h,[1],408 µM
same,IC50,U-87 MG,33.1 µM
same,IC50,A549,14.4 µM
same,IC50,K562 [2],8.37 µM
same,IC50,HT-1080,27.6 µM
CCNC(=O)CC[C@@H](NS(=O)(=O)c1ccc(C)cc1)C(=O)O,IC50 at 72 h,[1],491 µM
same,IC50,U-87 MG,32.3 µM
same,IC50,A549,4.82 µM
same,IC50,K562 [2],2.54 µM
same,IC50,HT-1080,16.5 µM
CNC(=O)CC[C@@H](NS(=O)(=O)c1ccc(C)cc1)C(=O)O,IC50 at 72 h,[1],203 µM
same,IC50,U-87 MG,28.9 µM
same,IC50,A549,5.14 µM
same,IC50,K562 [2],2.37 µM
same,IC50,HT-1080,25.2 µM
COc1ccc(S(=O)(=O)N(CC(=O)NO)CC(C)C)cc1,IC50,A549,13.5 µM
same,IC50,K562 [2],4.77 µM
CCCCNC(=O)CC[C@@H](NS(=O)(=O)c1ccc([N+](=O)[O-])cc1)C(=O)O,IC50,[3],456 nM
same,IC50 at 72 h,[1],368 µM
same,IC50,U-87 MG,29 µM
same,IC50,A549,18.4 µM
same,IC50,[4],833 nM
same,IC50,K562 [5],5.26 µM
same,IC50,Neutrophil collagenase,> 2000 nM
same,IC50,HT-1080,37.6 µM
CC(C)CNC(=O)CC[C@@H](NS(=O)(=O)c1ccc([N+](=O)[O-])cc1)C(=O)O,IC50 at 72 h,[1],217 µM
same,IC50,U-87 MG,38.5 µM
same,IC50,A549,10.8 µM
same,IC50,K562 [2],8.06 µM
same,IC50,HT-1080,16.2 µM
CCCCCNC(=O)CC[C@@H](NS(=O)(=O)c1ccc([N+](=O)[O-])cc1)C(=O)O,IC50 at 72 h,[1],254 µM
same,IC50,U-87 MG,14.2 µM
same,IC50,A549,12.7 µM
same,IC50,K562 [5],6.79 µM
same,IC50,HT-1080,20.7 µM
CCCCNC(=O)CC[C@@H](NS(=O)(=O)c1ccc(C)cc1)C(=O)O,IC50 at 72 h,[1],391 µM
same,IC50,U-87 MG,16.8 µM
same,IC50,A549,19.5 µM
same,IC50,K562 [2],3.75 µM
same,IC50,HT-1080,25.9 µM
O=C(CC[C@@H](NS(=O)(=O)c1ccc([N+](=O)[O-])cc1)C(=O)O)NCc1ccccc1,IC50,[3],273 nM
same,Activity,K562 [6],49%
same,Activity,ACHN [7],Active
same,IC50 at 72 h,[1],114 µM
same,Activity,K562 [8],4.6%
same,IC50,U-87 MG,17.9 µM
same,IC50,A549,5.68 µM
same,Activity,[9],19.6%
same,Activity,ACHN [10],Active
same,Activity,K562 [11],17.4%
same,IC50,ACHN [12],26.8 µM
same,IC50,[13],1720 nM
same,Activity,K562 [14],26.7%
same,IC50,[4],561 nM
same,Activity,ACHN [15],Active
same,IC50,K562 [2],4.91 µM
same,IC50,Neutrophil collagenase,> 2000 nM
same,Activity,K562 [16],33.6%
same,Activity,ACHN [17],Active
same,IC50,HT-1080,57.5 µM
Cc1ccc(S(=O)(=O)N[C@H](CCC(=O)NCc2ccccc2)C(=O)O)cc1,Activity,ACHN [18],Active
same,Activity,K562 [19],Active
same,Activity,K562 [20],14.7%
same,Activity,K562 [21],inactive
same,Activity,ACHN [22],Active
same,IC50 at 72 h,[1],293 µM
same,Activity,ACHN [23],Active
same,Activity,K562 [24],Active
same,Activity,K562 [25],56.4%
same,IC50,U-87 MG,17.5 µM
same,IC50,A549,3.57 µM
same,Activity,K562 [26],Tde
same,Activity,K562 [27],Active
same,Activity,ACHN [28],Active
same,IC50,ACHN [12],17.2 µM
same,Activity,K562 [29],Active
same,IC50,[13],1240 nM
same,Activity,K562 [30],39.7%
same,IC50,K562 [2],1.99 µM
same,Activity,[31],20.1%
same,IC50,Neutrophil collagenase,> 2000 nM
same,Activity,K562 [32],inactive
same,Activity,K562 [33],12%
same,Activity,K562 [34],Active
same,IC50,HT-1080,19.7 µM
same,Activity,K562 [35],29.1%
Cc1ccc(S(=O)(=O)N[C@H](CCC(=O)NC(C)C)C(=O)O)cc1,IC50 at 72 h,[1],347 µM
same,IC50,U-87 MG,20.3 µM
same,IC50,A549,17.3 µM
same,IC50,K562 [2],4.24 µM
same,IC50,HT-1080,19.5 µM
NC(=O)CC[C@@H](NS(=O)(=O)c1ccc([N+](=O)[O-])cc1)C(=O)O,IC50 at 72 h,[1],173 µM
same,IC50,U-87 MG,26.4 µM
same,IC50,A549,8.99 µM
same,IC50,K562 [2],9.73 µM
same,IC50,HT-1080,20.5 µM

# From ChEMBL document CHEMBL5523721, “Derivatives of D(-) glutamine-based MMP-2 inhibitors as an effective remedy for the management of chronic myeloid leukemia-Part-I: Synthesis, biological screening and in silico binding interaction analysis” (Eur J Med Chem, 2024)
